Kd data for seven compounds are collected here from ChEMBL document CHEMBL3991601, “The target landscape of clinical kinase drugs” (Science, 2017).

Assay [1] deals with Cyclin-dependent kinase 1 (Homo sapiens, UniProt P06493).
Assay [2] deals with Structural maintenance of chromosomes protein 2 (Homo sapiens, UniProt O95347).
The target of another assay is T1, Ephrin type-B receptor 2 (Homo sapiens, UniProt P29323).
T1 sequence (P29323 whole entry): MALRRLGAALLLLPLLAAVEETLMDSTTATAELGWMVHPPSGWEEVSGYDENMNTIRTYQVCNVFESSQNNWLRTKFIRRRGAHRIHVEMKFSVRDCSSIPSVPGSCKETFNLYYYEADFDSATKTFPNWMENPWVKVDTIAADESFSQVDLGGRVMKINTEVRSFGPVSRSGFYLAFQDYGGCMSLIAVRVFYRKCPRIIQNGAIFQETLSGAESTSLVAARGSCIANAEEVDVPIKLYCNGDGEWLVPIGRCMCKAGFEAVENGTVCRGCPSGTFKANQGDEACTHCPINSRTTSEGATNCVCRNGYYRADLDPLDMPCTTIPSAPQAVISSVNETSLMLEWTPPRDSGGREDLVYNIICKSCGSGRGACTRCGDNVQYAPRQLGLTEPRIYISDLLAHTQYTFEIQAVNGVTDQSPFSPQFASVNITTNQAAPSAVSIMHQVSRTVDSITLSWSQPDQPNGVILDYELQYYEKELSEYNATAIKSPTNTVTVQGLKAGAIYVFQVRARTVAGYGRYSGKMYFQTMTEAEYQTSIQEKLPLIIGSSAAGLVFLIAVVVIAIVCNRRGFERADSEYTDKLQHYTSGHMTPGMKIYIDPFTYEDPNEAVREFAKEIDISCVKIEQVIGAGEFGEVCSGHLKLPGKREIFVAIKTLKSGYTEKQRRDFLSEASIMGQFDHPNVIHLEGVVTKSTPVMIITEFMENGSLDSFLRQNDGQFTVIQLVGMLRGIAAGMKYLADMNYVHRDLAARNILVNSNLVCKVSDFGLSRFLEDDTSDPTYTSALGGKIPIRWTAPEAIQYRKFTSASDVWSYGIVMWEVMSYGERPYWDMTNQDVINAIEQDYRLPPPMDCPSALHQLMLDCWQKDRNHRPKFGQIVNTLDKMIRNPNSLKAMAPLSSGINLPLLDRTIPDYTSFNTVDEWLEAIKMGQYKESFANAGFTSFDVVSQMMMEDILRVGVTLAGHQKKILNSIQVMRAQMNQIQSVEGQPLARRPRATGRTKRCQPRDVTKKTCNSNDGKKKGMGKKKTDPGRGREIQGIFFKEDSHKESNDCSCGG

Assay [3] concerns the target Casein kinase I isoform epsilon (Homo sapiens, UniProt P49674).
For assay [4], the target named is T2, Serine/threonine-protein kinase Chk1 (Homo sapiens, UniProt O14757).
T2 sequence (O14757 whole entry): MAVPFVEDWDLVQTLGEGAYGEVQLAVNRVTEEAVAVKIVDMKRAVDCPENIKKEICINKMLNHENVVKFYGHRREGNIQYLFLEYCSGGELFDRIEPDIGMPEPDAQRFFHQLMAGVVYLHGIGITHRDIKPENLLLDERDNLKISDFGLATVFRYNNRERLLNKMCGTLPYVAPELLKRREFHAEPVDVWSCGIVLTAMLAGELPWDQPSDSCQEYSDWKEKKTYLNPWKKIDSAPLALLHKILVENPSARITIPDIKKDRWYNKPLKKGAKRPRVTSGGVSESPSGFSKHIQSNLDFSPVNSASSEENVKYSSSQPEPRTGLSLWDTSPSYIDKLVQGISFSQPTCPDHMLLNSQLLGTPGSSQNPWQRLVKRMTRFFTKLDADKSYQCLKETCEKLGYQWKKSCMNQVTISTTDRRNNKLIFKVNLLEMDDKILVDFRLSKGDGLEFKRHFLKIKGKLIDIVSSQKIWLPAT

Assay [5] addresses Macrophage-stimulating protein receptor (Homo sapiens, UniProt Q04912).
In the next assay the target is T3, Aurora kinase A (Homo sapiens, UniProt O14965).
T3 sequence (O14965 whole entry): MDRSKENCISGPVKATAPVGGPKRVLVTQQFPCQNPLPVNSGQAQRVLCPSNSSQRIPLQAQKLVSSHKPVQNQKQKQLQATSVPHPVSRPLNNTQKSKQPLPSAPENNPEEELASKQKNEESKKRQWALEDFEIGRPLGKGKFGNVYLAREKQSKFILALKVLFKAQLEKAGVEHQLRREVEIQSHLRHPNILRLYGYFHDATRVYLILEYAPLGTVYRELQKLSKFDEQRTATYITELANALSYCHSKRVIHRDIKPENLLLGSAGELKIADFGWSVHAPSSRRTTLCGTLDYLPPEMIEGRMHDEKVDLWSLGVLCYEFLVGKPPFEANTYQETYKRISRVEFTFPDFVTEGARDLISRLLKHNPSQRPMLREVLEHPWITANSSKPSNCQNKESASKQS

Assay [6] addresses Calcium/calmodulin-dependent protein kinase kinase 2 (Homo sapiens, UniProt Q96RR4).
Assay [7] concerns the target T4, Serine/threonine-protein kinase ICK (Homo sapiens, UniProt Q9UPZ9).
T4 sequence (Q9UPZ9 whole entry): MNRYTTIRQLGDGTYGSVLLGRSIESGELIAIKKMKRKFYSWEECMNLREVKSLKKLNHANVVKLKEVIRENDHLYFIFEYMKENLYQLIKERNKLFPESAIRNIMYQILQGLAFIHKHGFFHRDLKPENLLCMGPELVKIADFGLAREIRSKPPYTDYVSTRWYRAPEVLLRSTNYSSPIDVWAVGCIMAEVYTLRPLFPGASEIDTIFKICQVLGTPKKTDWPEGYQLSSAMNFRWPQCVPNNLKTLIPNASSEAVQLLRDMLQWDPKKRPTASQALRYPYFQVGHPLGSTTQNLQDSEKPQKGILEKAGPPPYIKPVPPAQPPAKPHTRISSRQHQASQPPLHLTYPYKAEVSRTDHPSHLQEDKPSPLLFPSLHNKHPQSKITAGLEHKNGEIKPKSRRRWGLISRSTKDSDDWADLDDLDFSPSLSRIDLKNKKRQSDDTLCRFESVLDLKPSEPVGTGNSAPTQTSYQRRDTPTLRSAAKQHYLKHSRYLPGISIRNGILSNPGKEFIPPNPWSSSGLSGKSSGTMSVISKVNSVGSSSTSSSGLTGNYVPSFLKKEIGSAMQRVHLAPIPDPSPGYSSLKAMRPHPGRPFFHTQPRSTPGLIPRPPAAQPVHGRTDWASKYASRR

The target in assay [8] is Serine/threonine-protein kinase PAK 2 (Homo sapiens, UniProt Q13177).
Sequence of Serine/threonine-protein kinase PAK 2 (Q13177 whole entry): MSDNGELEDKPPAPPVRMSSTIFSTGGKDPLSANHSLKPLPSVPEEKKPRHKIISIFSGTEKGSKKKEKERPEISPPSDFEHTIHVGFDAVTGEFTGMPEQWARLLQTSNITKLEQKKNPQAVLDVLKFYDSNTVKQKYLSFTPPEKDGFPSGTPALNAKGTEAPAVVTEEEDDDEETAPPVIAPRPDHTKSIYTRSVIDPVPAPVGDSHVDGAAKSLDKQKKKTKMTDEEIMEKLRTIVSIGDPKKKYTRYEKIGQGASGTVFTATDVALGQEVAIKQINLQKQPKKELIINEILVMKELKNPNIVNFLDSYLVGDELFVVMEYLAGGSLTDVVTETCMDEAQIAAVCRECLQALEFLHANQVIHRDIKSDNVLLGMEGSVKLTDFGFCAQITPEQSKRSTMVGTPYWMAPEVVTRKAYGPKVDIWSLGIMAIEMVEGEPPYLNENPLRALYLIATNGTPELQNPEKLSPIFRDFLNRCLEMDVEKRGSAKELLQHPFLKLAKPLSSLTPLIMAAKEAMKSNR

SMILES strings stand for the structures. Calls of active or inactive are those of the source. Cut-off read from the data, not from the text of the source, for most assays here: actives have a measured Kd and inactives only a lower limit.
Note: in the data inactive means no Kd found up to 30 µM.

Sequence of Structural maintenance of chromosomes protein 2 (O95347 whole entry): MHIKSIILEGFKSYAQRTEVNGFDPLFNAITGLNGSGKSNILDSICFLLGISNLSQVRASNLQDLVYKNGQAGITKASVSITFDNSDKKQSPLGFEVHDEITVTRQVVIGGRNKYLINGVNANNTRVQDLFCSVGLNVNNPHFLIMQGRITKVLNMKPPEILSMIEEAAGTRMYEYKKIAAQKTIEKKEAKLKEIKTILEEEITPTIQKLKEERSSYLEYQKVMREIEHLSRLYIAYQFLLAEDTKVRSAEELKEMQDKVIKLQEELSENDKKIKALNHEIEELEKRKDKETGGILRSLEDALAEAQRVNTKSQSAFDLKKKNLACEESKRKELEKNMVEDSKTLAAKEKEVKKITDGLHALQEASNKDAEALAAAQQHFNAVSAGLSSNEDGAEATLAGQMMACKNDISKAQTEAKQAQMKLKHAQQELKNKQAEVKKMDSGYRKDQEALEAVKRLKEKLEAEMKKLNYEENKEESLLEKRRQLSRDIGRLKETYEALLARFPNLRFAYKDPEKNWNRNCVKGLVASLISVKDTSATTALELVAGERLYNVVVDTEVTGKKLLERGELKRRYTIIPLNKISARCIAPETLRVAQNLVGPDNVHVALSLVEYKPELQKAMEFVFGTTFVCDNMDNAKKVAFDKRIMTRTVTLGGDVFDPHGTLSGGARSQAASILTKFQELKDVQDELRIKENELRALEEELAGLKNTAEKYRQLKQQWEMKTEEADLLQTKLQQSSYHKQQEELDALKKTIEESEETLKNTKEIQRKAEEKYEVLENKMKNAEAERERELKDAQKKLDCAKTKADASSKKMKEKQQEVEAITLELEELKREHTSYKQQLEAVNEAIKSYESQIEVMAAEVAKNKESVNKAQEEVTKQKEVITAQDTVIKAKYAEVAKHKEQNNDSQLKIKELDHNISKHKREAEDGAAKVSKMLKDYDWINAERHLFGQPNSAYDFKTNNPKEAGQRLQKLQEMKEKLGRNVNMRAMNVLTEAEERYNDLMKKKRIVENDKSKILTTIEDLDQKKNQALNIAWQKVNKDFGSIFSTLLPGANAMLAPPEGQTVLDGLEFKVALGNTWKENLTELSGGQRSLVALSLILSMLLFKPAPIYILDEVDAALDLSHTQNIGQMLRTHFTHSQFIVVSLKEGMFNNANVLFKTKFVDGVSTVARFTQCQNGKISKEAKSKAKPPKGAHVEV
Sequence of Cyclin-dependent kinase 1 (P06493 whole entry): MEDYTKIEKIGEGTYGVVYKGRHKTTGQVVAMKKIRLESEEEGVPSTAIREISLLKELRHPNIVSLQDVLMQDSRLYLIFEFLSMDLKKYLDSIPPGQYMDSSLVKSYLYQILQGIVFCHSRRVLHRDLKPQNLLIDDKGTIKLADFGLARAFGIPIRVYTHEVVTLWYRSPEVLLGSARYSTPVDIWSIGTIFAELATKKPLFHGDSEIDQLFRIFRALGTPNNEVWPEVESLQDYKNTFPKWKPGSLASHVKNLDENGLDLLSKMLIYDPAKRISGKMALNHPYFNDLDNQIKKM
Sequence of Casein kinase I isoform epsilon (P49674 whole entry, canonical isoform): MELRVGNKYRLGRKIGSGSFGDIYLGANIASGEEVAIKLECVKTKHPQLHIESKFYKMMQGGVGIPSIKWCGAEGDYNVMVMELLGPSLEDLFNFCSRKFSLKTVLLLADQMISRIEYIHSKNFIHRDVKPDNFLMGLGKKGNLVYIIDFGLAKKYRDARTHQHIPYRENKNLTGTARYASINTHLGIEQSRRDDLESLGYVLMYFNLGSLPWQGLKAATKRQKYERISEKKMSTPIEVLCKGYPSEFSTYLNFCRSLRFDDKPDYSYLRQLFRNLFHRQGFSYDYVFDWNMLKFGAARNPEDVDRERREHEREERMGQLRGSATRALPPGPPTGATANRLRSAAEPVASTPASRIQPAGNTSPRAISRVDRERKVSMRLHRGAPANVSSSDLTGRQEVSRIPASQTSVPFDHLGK
Sequence of Calcium/calmodulin-dependent protein kinase kinase 2 (Q96RR4 whole entry): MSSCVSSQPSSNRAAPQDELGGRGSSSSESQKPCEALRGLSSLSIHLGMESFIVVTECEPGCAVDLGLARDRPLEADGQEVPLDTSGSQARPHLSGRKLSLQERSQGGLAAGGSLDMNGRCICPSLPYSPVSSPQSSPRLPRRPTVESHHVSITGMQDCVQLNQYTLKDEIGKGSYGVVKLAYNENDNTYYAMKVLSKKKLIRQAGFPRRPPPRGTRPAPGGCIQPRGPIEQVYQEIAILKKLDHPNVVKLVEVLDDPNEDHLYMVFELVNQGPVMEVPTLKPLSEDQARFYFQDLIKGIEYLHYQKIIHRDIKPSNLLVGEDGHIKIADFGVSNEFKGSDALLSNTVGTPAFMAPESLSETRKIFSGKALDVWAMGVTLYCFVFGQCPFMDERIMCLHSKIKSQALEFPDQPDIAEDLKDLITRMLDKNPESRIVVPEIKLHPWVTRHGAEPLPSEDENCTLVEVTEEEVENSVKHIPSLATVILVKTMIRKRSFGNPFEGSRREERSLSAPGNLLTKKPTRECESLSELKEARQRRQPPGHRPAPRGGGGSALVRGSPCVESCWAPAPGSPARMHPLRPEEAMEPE
Sequence of Macrophage-stimulating protein receptor (Q04912 25-304 limits assumed): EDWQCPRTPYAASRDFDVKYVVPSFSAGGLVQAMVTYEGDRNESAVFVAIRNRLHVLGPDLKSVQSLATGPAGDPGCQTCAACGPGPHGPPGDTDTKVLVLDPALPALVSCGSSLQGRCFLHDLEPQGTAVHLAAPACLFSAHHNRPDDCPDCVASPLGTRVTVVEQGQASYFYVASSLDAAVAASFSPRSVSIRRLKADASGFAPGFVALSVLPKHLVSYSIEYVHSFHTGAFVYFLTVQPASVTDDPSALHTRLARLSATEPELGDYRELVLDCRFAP
Sequence of Macrophage-stimulating protein receptor (Q04912 310-1400 limits assumed): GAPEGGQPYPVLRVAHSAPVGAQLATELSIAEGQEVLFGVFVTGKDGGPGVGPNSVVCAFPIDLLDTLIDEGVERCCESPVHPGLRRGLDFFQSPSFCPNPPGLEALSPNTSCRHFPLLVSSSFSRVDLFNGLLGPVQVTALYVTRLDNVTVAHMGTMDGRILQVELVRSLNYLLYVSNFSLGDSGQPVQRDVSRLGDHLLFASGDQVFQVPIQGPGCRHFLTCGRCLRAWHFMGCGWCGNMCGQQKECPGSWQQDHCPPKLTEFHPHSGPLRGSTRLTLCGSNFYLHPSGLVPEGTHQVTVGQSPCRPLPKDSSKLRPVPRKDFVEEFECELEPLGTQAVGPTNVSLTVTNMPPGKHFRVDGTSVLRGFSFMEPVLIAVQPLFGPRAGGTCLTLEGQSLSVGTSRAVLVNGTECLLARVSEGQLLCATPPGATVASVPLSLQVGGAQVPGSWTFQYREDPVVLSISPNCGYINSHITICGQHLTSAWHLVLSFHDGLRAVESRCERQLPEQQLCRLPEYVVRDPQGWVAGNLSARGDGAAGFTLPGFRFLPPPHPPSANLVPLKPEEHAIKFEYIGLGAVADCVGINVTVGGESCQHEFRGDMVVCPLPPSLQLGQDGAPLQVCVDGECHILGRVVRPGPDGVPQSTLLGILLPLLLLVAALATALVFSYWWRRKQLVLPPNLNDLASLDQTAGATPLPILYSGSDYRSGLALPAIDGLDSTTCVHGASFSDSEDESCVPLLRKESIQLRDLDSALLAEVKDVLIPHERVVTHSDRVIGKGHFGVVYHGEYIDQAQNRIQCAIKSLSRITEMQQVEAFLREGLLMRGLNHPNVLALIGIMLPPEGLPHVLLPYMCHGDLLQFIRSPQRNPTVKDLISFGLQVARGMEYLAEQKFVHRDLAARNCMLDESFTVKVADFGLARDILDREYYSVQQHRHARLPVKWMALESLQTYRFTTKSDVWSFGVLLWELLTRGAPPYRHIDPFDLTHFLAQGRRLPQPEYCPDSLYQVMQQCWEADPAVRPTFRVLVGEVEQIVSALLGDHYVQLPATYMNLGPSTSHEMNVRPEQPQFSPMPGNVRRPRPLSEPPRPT

By Kd is commonly meant the equilibrium constant for the complex coming apart. Turning to `C[C@@H](Nc1cc(F)cc(F)c1)c1cc(C(=O)N(C)C)cc2c(=O)cc(N3CCOCC3)oc12` [AZD-8186], the Kd (in assay [1]; in assay [2]; at Ephrin type-B receptor 2; in [3]; in assay [4]; in assay [5]) was > 30 µM (inactive) each time. Also, the Kd (on Aurora kinase A; in assay [6]; in assay [7]) was > 30 µM (inactive) each time.

For `C1=C/COCc2cc(ccc2OCCN2CCCC2)Nc2nccc(n2)-c2cccc(c2)COC/1` [PACRITINIB], the Kd (in assay [1]; in [2]; on Ephrin type-B receptor 2; in assay [3]; in assay [4]; in [5]) was > 30 µM (inactive) each time. Also, the Kd is > 30 µM (inactive) at Aurora kinase A, 7.69 µM (active) in [6] and 0.27 µM (active) in assay [7].

Regarding `COc1cc(N2CCC(N3CCN(C)CC3)CC2)ccc1Nc1ncnc(Nc2ccccc2S(=O)(=O)C(C)C)n1` [ASP-3026], the Kd (in assay [1]; in assay [2]; at Ephrin type-B receptor 2; in [3]; in [4]; in [5]) was > 30 µM (inactive) in each case. Also, the Kd on Aurora kinase A is > 30 µM (inactive); in assay [6], 9.13 µM (active); in [7] it was > 30 µM (inactive).

As to `Cn1ncc(Cl)c1-c1cc(C(=O)N[C@H](CN)Cc2cccc(F)c2)sc1Cl` [AFURESERTIB], the Kd (in assay [1]; in assay [2]; on Ephrin type-B receptor 2; in [3]; in [4]; in assay [5]) was > 30 µM (inactive) in each case. Further, the Kd (on Aurora kinase A; in assay [8]; in [6]) was > 30 µM (inactive) in each case.

Consider `CN1CCC(COc2cnc(-c3cccc(Cn4nc(-c5cccc(C#N)c5)ccc4=O)c3)nc2)CC1` [TEPOTINIB], for which the Kd (in assay [1]; in [2]; on Ephrin type-B receptor 2; in assay [3]; in assay [5]; at Aurora kinase A) was > 30 µM (inactive) in each case. The Kd in assay [8], in assay [6] and in [7] was > 30 µM (inactive) throughout.

For `Cn1cc(-c2ccc(F)c(C(F)(F)F)c2)nc1C1CCN(c2ncnc3[nH]ncc23)CC1` [LY-2584702], the Kd (in assay [1]; in assay [2]; at Ephrin type-B receptor 2; in assay [3]; in [4]; in assay [5]) was > 30 µM (inactive) each time. The Kd (at Aurora kinase A; in [6]; in assay [7]) was > 30 µM (inactive) in each case.

For the compound `Cc1c(F)cc(C(=O)NC2CC2)cc1-c1ccc(C(=O)NCC(C)(C)C)cn1` [LOSMAPIMOD], the Kd (in assay [1]; in assay [2]; on Ephrin type-B receptor 2; in assay [3]; in [4]; in [5]) was > 30 µM (inactive) throughout. Besides, the Kd (on Aurora kinase A; in assay [6]; in [7]) was > 30 µM (inactive) each time.
